Biological target: PPAR-alpha (Mesocricetus auratus)
Test: Effective concentration against hamster PPAR-alpha in Gal4 transactivation assay

EC50 [nM] | SMILES
280 | CCC1(C(=O)O)Cc2cc(OCCCOc3ccc(C(C)(C)C)cc3Cl)ccc2O1 (centres undefined) [5-[3-(4-tert-Butyl-2-chloro-phenoxy)-propoxy]-2-ethyl-2,3-dihydro-benzofuran-2-carboxylic acid]
402 | CCC1(C(=O)O)Cc2cc(OCCCOc3ccc(OCC(F)(F)F)cc3Cl)ccc2O1 (centres undefined) [5-{3-[2-Chloro-4-(2,2,2-trifluoro-ethoxy)-phenoxy]-propoxy}-2-ethyl-2,3-dihydro-benzofuran-2-carboxylic acid]
370 | CC(C)[C@@]1(C(=O)O)Cc2cc(OCCOc3ccc(OC(F)(F)F)cc3Cl)ccc2O1 [(R)-5-[2-(2-Chloro-4-trifluoromethoxy-phenoxy)-ethoxy]-2-isopropyl-2,3-dihydro-benzofuran-2-carboxylic acid]
420 | CC(C)[C@@]1(C(=O)O)Cc2cc(OCCCOc3cc(C(F)(F)F)ccc3Cl)ccc2O1 [(R)-5-[3-(2-Chloro-5-trifluoromethyl-phenoxy)-propoxy]-2-isopropyl-2,3-dihydro-benzofuran-2-carboxylic acid]
